# Source: ChEMBL document CHEMBL3351254, “Rational design, synthesis and anti-proliferative evaluation of novel 1,4-benzoxazine-[1,2,3]triazole hybrids” (2015)
# Tests used:
# Assay type in all cases: functional
# [1] = Antiproliferative activity against human IMR32 cells assessed as reduction in net protein increase after 48 hrs by SRB assay; conditions: IMR-32, 48 h
# HeLa = experiment: Antiproliferative activity against human HeLa cells assessed as reduction in net protein increase after 48 hrs by SRB assay
# MDA-MB-231 = experiment: Antiproliferative activity against human MDA-MB-231 cells assessed as reduction in net protein increase after 48 hrs by SRB assay; conditions: MDA-MB-231, 48 h
# [2] = Antiproliferative activity against human MiaPaCa cells assessed as reduction in net protein increase after 48 hrs by SRB assay; conditions: MIA PaCa-2, 48 h
GI50 (HeLa),GI50 (MDA-MB-231),SMILES,GI50 [1],GI50 [2]
9000 nM,4900 nM,O=C1COc2ccccc2N1CCCn1cc(-c2ccccc2)nn1,370 nM,94000 nM
14300 nM,1120 nM,Cc1ccc(-c2cn(CCCN3C(=O)COc4ccccc43)nn2)cc1,4400 nM,> 100000 nM
> 100000 nM,5000 nM,CCCCCc1ccc(-c2cn(CCCN3C(=O)COc4ccccc43)nn2)cc1,43500 nM,> 100000 nM
> 100000 nM,5000 nM,COc1ccc2cc(-c3cn(CCCN4C(=O)COc5ccccc54)nn3)ccc2c1,1300 nM,> 100000 nM
> 100000 nM,> 100000 nM,O=C1COc2ccccc2N1CCCn1cc(-c2cc3ccccc3c3ccccc23)nn1,130 nM,8400 nM
4900 nM,41500 nM,COc1ccc(-c2cn(CCCN3C(=O)COc4ccccc43)nn2)cc1,49900 nM,15700 nM
100 nM,1100 nM,CCCCCCc1cn(CCCN2C(=O)COc3ccccc32)nn1,710 nM,150 nM
10000 nM,4800 nM,O=C1COc2ccccc2N1CCCn1cc(-c2ccccn2)nn1,2000 nM,5800 nM
> 100000 nM,3000 nM,O=C1COc2ccccc2N1CCCn1cc(-c2cccnc2)nn1,860 nM,8200 nM
7300 nM,5700 nM,O=C1COc2ccccc2N1CCCn1cc(CO)nn1,5500 nM,1010 nM
1020 nM,3600 nM,CCCCc1cn(CCCN2C(=O)COc3ccccc32)nn1,5700 nM,2500 nM
23200 nM,1100 nM,CCCc1cn(CCCN2C(=O)COc3ccccc32)nn1,1400 nM,2600 nM
100 nM,6400 nM,O=C1COc2ccccc2N1CCCn1cc(CCCCl)nn1,200 nM,12500 nM
2000 nM,1200 nM,O=C1COc2ccccc2N1CCCn1cc(C2(O)CCCCC2)nn1,1200 nM,2500 nM
73 nM,85 nM,COc1cccc2c1C(=O)c1c(O)c3c(c(O)c1C2=O)C[C@@](O)(C(=O)CO)C[C@@H]3O[C@H]1C[C@H](N)[C@H](O)[C@H](C)O1 [DOXORUBICIN],23 nM,97 nM
25 nM,91 nM,CC(=O)O[C@H]1C(=O)[C@@]2(C)[C@H]([C@H](OC(=O)c3ccccc3)[C@]3(O)C[C@H](OC(=O)[C@H](O)[C@@H](NC(=O)c4ccccc4)c4ccccc4)C(C)=C1C3(C)C)[C@]1(OC(C)=O)CO[C@@H]1C[C@@H]2O [PACLITAXEL],75 nM,56 nM
